# Laboratory results from article PMC5219024, “New acetylenic derivatives of betulin and betulone, synthesis and cytotoxic activity” (Medicinal Chemistry Research, 2016).
# Read-outs that look alike come from different tables or passages of the source.
# Tests used:
# [1] = test system: T47D (human breast cancer); test: Antiproliferative assay in vitro (SRB), T47D; format: cell-based; conditions: for IC50: read-out: Cytotoxic activity IC50, T47D
# Experimental: (§1) The tested cell lines were obtained from the American Type Culture Collection (Rockville, Maryland, USA) and maintained at the Cell Culture Collection of the Institute of Immunology and Experimental Therapy (Wrocław, Poland). The cells were seeded in 96-well plates (Sarstedt, USA) at a density of 10^4 cells per well in 100 µL of culture medium overnight. […] The normal mouse fibroblasts BALB3T3 was cultured in Dulbecco’s modified Eagle’s medium (Sigma-Aldrich, Chemie GmbH, Steinheim, Germany) supplemented with 2 mM glutamine (Sigma-Aldrich, Chemie GmbH, Steinheim, Germany) and 10 % fetal calf serum FBS (Sigma-Aldrich, Chemie GmbH, Steinheim, Germany). The all culture media were supplemented with streptomycin (100 µg/mL) and penicillin (100 U/mL) (both antibiotics from Polfa, Tarchomin, Poland). The cell cultures were maintained at 37 °C in humid atmosphere saturated with 5 % CO2. This technique as first was described by Skehan et al. in [1990]. The SRB assay was performed after 96 h exposure of the cultured cells to varying concentrations (ranging from 1 to 100 µg/mL) of the tested substances. The reported derivatives as well as betulin 1 were dissolved in 10 % dimethyl sulfoxide (DMSO) to concentration of 1 mg/mL, and next diluted in culture medium to reach the required concentrations. […] The cells fastened to the plastic were fixed mildly layering cold 50 % TCA (trichloroacetic acid, Aldrich-Chemie, Germany) on the top of the culture medium in each well. The plates were incubated at 4 °C for 1 h and then washed five times with tap water. The cells fixed with TCA were stained with 0.4 % sulforhodamine B (SRB, Sigma, Germany) dissolved in 1 % acetic acid (POCH, Gliwice, Poland) for 30 min. The unbound dye was removed by rinsing four times with 1 % acetic acid. The protein-bound dye was extracted with 10 mM unbuffered tris base (POCH, Gliwice, Poland) and then determined the optical density at 540 nm in a computer-interfaced, 96-well microtiter plate reader Multiscan RC photometer (Labsystems, Helsinki, Finland). The compounds in given concentration were examined in triplicates in each experiment which was repeated 3–5 times. The results of cytotoxic activity in vitro were expressed as an IC50 in µg/mL.
# SW707 (human colorectal) = test: Antiproliferative assay in vitro (SRB), SW707; format: cell-based; conditions: for IC50: read-out: Cytotoxic activity IC50, SW707
# Experimental: as §1
# P388 (mouse leukemia) = test: Antiproliferative assay in vitro (MTT), P388; format: cell-based; conditions: murine P388, 96 h exposure, 1 to 100 µg/mL, Neg = negative in the concentration used; for IC50: Mus musculus, read-out: Cytotoxic activity IC50, P388
# Experimental: (§2) The tested cell lines were obtained from the American Type Culture Collection (Rockville, Maryland, USA) and maintained at the Cell Culture Collection of the Institute of Immunology and Experimental Therapy (Wrocław, Poland). The cells were seeded in 96-well plates (Sarstedt, USA) at a density of 10^4 cells per well in 100 µL of culture medium overnight. […] The normal mouse fibroblasts BALB3T3 was cultured in Dulbecco’s modified Eagle’s medium (Sigma-Aldrich, Chemie GmbH, Steinheim, Germany) supplemented with 2 mM glutamine (Sigma-Aldrich, Chemie GmbH, Steinheim, Germany) and 10 % fetal calf serum FBS (Sigma-Aldrich, Chemie GmbH, Steinheim, Germany). The all culture media were supplemented with streptomycin (100 µg/mL) and penicillin (100 U/mL) (both antibiotics from Polfa, Tarchomin, Poland). The cell cultures were maintained at 37 °C in humid atmosphere saturated with 5 % CO2. The MTT assay was used for the cytotoxicity screening against leukemia cells growing in suspension culture. This assay was performed after 96 h of the leukemia cells to varying concentrations (ranging from 1 to 100 µg/mL) of the tested substances. The derivatives of betulin were dissolved in 10 % DMSO to concentration of 1 mg/mL, and next diluted in culture medium to reach the required concentrations. […] During the last 3–4 h of incubation 20 µl of MTT solution were added to each well (MTT: 3-(4,5-dimethylthiazol-2-yl)-2,5-diphenyl tetrazolium bromide; stock solution: 5 mg/mL). The pale yellow MTT is reduced to a navy blue formazan in the mitochondria of living cells. At the end of incubation time, 80 µL of the lysing mixture was added to each well (lysing mixture: 225 mL dimethylformamide, 67.5 g sodium dodecyl sulfate and 275 mL of distilled water). After 24 h are formed the crystals of formazan, which are insoluble in aqueous solutions. The formazan crystals had been dissolved. The optical densities were read on a Multiskan RC photometer at 570 nm wavelength. The compounds in given concentration were examined in triplicates in each experiment which was repeated 3–5 times. The results of cytotoxic activity in vitro were expressed as an IC50 in µg/mL.
# [2] = test system: BALB3T3 normal mouse fibroblasts; test: Antiproliferative assay in vitro (SRB), BALB3T3; format: cell-based; conditions: murine BALB3T3 normal fibroblasts; 96 h exposure; 1 to 100 µg/mL; Neg = negative in the concentration used
# Experimental: as §1
# [3] = test system: CCRF/CEM (human leukemia); test: Antiproliferative assay in vitro (MTT), CCRF/CEM; format: cell-based; conditions: for IC50: read-out: Cytotoxic activity IC50, CCRF/CEM
# Experimental: as §2
# [4] = test system: HL-60 (human promyelocytic leukemia); test: Antiproliferative assay in vitro (MTT), HL-60; format: cell-based; conditions: for IC50: Homo sapiens, read-out: Cytotoxic activity IC50, HL-60
# Experimental: as §2
# [5] = Antiproliferative assay in vitro (SRB), BALB3T3; format: cell-based, mouse; conditions: mouse; murine BALB3T3 normal fibroblasts; 96 h exposure; 1 to 100 µg/mL; Neg = negative in the concentration used; read-out: Cytotoxic activity IC50, BALB3T3
# Experimental: as §1
# [6] = human T47D, 96 h exposure, 1 to 100 µg/mL, Neg = negative in the concentration used
# [7] = human SW707, 96 h exposure, 1 to 100 µg/mL, Neg = negative in the concentration used
# [8] = human CCRF/CEM, 96 h exposure, 1 to 100 µg/mL, Neg = negative in the concentration used
# [9] = HL-60 cancer cell line, 96 h exposure
smiles,measurement,setting,value
"C=C(C)[C@@H]1CC[C@]2(COC(=O)OCC#CC)CC[C@]3(C)C(CCC4[C@@]5(C)CCC(=O)C(C)(C)C5CC[C@]43C)C12 (some centres unmarked) [Compound 26, 28-O-(2-Butynyloxycarbonyl)betulone]",IC50,[1]; [6],79.2 ± 5.2 mg/L
same,"Cytotoxic activity IC50, SW707",SW707 (human colorectal); [7],Neg
same,IC50,P388 (mouse leukemia),18.3 ± 12.9 mg/L
same,"Cytotoxic activity IC50, BALB3T3",[2],Neg
same,melting point,,150 to 152 °C
same,IC50,[3]; [8],47.6 ± 5.7 mg/L
"C=C(C)[C@@H]1CC[C@]2(COC(=O)C#CC3CC3)CC[C@]3(C)C(CCC4[C@@]5(C)CCC(=O)C(C)(C)C5CC[C@]43C)C12 (some centres unmarked) [Compound 18, 28-O-(3-Cyclopropyl-2-propynoyl)betulone]",IC50,[4]; [9],33.9 ± 5.5 mg/L
same,melting point,,93 to 97 °C
"C#CC(=O)OC[C@]12CC[C@@H](C(=C)C)C1C1CCC3[C@@]4(C)CCC(=O)C(C)(C)C4CC[C@@]3(C)[C@]1(C)CC2 (some centres unmarked) [Compound 17, 28-O-Propynoylbetulone]",IC50,[4]; [9],0.3 ± 0.06 mg/L
same,fold potent than betulin 1 against HL-60,"[4]; relative to betulin 1, HL-60",24 fold
same,melting point,,93 to 96 °C
"C=C(C)[C@@H]1CC[C@]2(COC(=O)C#Cc3ccccc3)CC[C@]3(C)C(CCC4[C@@]5(C)CCC(=O)C(C)(C)C5CC[C@]43C)C12 (some centres unmarked) [Compound 19, 28-O-Phenylpropynoylbetulone]","Cytotoxic activity IC50, T47D",[1]; [6],Neg
same,"Cytotoxic activity IC50, SW707",SW707 (human colorectal); [7],Neg
same,"Cytotoxic activity IC50, P388",P388 (mouse leukemia),Neg
same,"Cytotoxic activity IC50, BALB3T3",[2],Neg
same,melting point,,82 to 85 °C
same,"Cytotoxic activity IC50, CCRF/CEM",[3]; [8],Neg
"C=CC(=O)OC[C@]12CC[C@@H](C(=C)C)C1C1CCC3[C@@]4(C)CCC(=O)C(C)(C)C4CC[C@@]3(C)[C@]1(C)CC2 (some centres unmarked) [Compound 16, 28-O-(2-Propenoyl)betulone]",IC50,[4]; [9],5 ± 1.3 mg/L
"C=C(C)[C@@H]1CC[C@]2(CO)CC[C@]3(C)[C@H](CC[C@@H]4[C@@]5(C)CC[C@H](O)C(C)(C)[C@@H]5CC[C@]43C)[C@@H]12 [Betulin 1, lup-20(29)-ene-3β,28-diol, reference compound]",IC50,"[1]; Homo sapiens, T47D, 96 h",32.4 ± 10.7 mg/L
same,IC50,"[4]; HL-60, 96 h",7.2 ± 0.5 mg/L
same,IC50,"SW707 (human colorectal); Homo sapiens, SW707, 96 h",22.9 ± 15.4 mg/L
same,IC50 at 96 h,[5],47.3 ± 7.9 mg/L
same,IC50,"[3]; Homo sapiens, CCRF-CEM, 96 h",10.9 ± 5.5 mg/L
"C=CCOC(=O)OC[C@]12CC[C@@H](C(=C)C)C1C1CCC3[C@@]4(C)CCC(=O)C(C)(C)C4CC[C@@]3(C)[C@]1(C)CC2 (some centres unmarked) [Compound 23, 28-O-Allyloxycarbonylbetulone]",IC50,[4]; [9],28.4 ± 1.6 mg/L
same,melting point,,123 to 125 °C
"C=CCOC(=O)OC[C@]12CC[C@@H](C(=C)C)C1C1CCC3[C@@]4(C)CC[C@H](O)C(C)(C)C4CC[C@@]3(C)[C@]1(C)CC2 (some centres unmarked) [Compound 11, 28-O-Allyloxycarbonylbetulin]",IC50,[4]; [9],14.9 ± 3.9 mg/L
"C=C(C)[C@@H]1CC[C@]2(COC(=O)C=CC)CC[C@]3(C)C(CCC4[C@@]5(C)CC[C@H](O)C(C)(C)C5CC[C@]43C)C12 (some centres unmarked) [Compound 8, 28-O-(2-Butenoyl)betulin]",IC50,[1]; [6],29.9 ± 9.3 mg/L
same,IC50,SW707 (human colorectal); [7],32 ± 4.2 mg/L
same,IC50,P388 (mouse leukemia),5.1 ± 4.9 mg/L
same,IC50 at 96 h,[5],25.6 ± 1.8 mg/L
same,melting point,,182 to 184 °C
same,IC50,[3]; [8],28 ± 21.6 mg/L
